Measurements taken from publication PMC2753600 (The FEBS journal, 2009).
Where a chain is given by its changes, count along the chain named. Structures can show the parent of a compound that is named as a salt. Where two headings read alike, the source gives them in different places.

Tests used:
Format in all cases: biochemical
[1] = molecular target: T1, purified human MAO A Ser209Glu mutant (Homo sapiens, UniProt P21397, S209E); experiment: Competitive inhibition of purified human MAO A Ser209Glu mutant; settings: for lower affinity for the Ser209Glu mutant than for the wild-type enzyme: purified Ser209Glu vs purified wild-type MAO A
T1 sequence (P21397 1-527 S209E): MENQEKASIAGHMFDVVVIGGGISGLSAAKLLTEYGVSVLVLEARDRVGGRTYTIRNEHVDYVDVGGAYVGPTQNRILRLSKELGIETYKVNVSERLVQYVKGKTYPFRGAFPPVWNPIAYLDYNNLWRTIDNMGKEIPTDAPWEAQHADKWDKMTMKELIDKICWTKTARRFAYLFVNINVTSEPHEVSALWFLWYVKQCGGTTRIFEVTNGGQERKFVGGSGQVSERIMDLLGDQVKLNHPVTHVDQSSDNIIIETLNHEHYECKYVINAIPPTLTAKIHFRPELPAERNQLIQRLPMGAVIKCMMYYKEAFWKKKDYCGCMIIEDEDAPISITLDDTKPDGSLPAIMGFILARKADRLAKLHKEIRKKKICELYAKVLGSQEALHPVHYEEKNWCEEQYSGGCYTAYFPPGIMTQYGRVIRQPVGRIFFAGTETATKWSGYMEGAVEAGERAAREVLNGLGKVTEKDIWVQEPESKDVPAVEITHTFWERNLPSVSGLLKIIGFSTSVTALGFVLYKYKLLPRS

[2] = molecular target: T2, membrane-bound wild-type MAO A (Homo sapiens, UniProt P21397); experiment: Steady-state kinetics of membrane-bound wild-type MAO A; settings: 50 mM potassium phosphate pH 7.5
T2 sequence (P21397 1-527): T1 sequence (P21397 1-527 S209E) with E209S

[3] = molecular target: T3, membrane-bound MAO A Ser209Glu mutant (Homo sapiens, UniProt P21397, S209E); experiment: Steady-state kinetics of membrane-bound MAO A Ser209Glu mutant; settings: 50 mM potassium phosphate pH 7.5
T3 sequence (P21397 1-527 S209E): T1 sequence (P21397 1-527 S209E)

[4] = molecular target: T4, purified wild-type human MAO A (Homo sapiens, UniProt P21397); experiment: Competitive inhibition of purified wild-type human MAO A
T4 sequence (P21397 1-527): T1 sequence (P21397 1-527 S209E) with E209S

[5] = molecular target: T5, purified human MAO A Ser209Ala mutant (Homo sapiens, UniProt P21397, S209A); experiment: Competitive inhibition of purified human MAO A Ser209Ala mutant
T5 sequence (P21397 1-527 S209A): T1 sequence (P21397 1-527 S209E) with E209A

`Cc1nccc2c1[nH]c1ccccc12` [Harmane] was tested, and the “binding to the Ser209Glu mutant compared with wild-type or Ser209Ala MAO A” value ([1]; purified enzymes) was “much more weakly”.
With `O=C1Nc2ccccc2C1=O` [Isatin, isatin] the “lower affinity for the Ser209Glu mutant than for the wild-type enzyme” value (from here on “lower affinity”) [1] was 20 fold.
With `CC(C)(N)Cc1ccccc1` [Phentermine, phentermine] the “lower affinity” value [1] was 13 fold.
With `NCCc1ccccc1` [Phenylethylamine, β-phenylethylamine] the Km [2] was 470 ± 40 µM, the kcat [2] was 0.8095 ± 0.0177 s⁻¹ and the Km [3] was 850 ± 70 µM. The kcat [3] was 1.068 ± 0.0238 s⁻¹.
For `Cc1ccc2c(c1)c1c3n2CCNC3CCC1` (stereo not drawn) [Pirlindole Mesylate, pirlindole mesylate], the Ki [4] was 0.92 ± 0.04 µM, the Ki [5] was 0.88 ± 0.18 µM and the Ki [1] was 21.5 ± 1.36 µM.
`c1cc2c(cc1C1CCCCC1)c1c3n2CCNC3CCC1` (stereo not drawn) [Tetrindole Mesylate, tetrindole mesylate] was tested, and the Ki ([4]; competitive inhibition constant, purified wild-type human MAO A) was 5.27 ± 0.24 µM.
`C[C@H](N)Cc1ccccc1` [d-Amphetamine, d-amphetamine] showed a Ki [4] of 3.69 ± 0.45 µM, a Ki [5] of 4.72 ± 0.63 µM and a Ki [1] of 609 ± 31.6 µM. For the same compound, the “lower affinity” value [1] was 160 fold.
